From article PMC9234961 (Journal of Medicinal Chemistry, 2022)
Like-named read-outs stand apart in the source and are kept apart here.

Experiments:
kinases (468) [1] = target: kinases (468) (Homo sapiens, UniProt O00750); settings: PIK3C2B; 1000 nM
kinases (468) [2] = target: kinases (468) (Homo sapiens, UniProt O14936); settings: CASK; 1000 nM
kinases (468) [3] = target: kinases (468) (Homo sapiens, UniProt O43293); settings: DAPK3; 1000 nM
kinases (468) [4] = target: kinases (468) (Homo sapiens, UniProt O43683); settings: BUB1; 1000 nM
kinases (468) [5] = target: kinases (468) (Homo sapiens, UniProt O75116); settings: kinase ROCK2 (Entrez ROCK2); compound concentration 1000 nM
kinases (468) [6] = target: kinases (468) (Homo sapiens, UniProt P04626); settings: ERBB2; 1000 nM
kinases (468) [7] = target: kinases (468) (Homo sapiens, UniProt P08581); settings: MET; 1000 nM
kinases (468) [8] = target: kinases (468) (Homo sapiens, UniProt P08581, M1250T); settings: MET(M1250T); 1000 nM
kinases (468) [9] = target: kinases (468) (Homo sapiens, UniProt P19525); settings: PRKR (EIF2AK2); 1000 nM
kinases (468) [10] = target: kinases (468) (Homo sapiens, UniProt P21127); settings: CDC2L1 (CDK11B); 1000 nM
kinases (468) [11] = target: kinases (468) (Homo sapiens, UniProt P21709); settings: EPHA1; 1000 nM
kinases (468) [12] = target: kinases (468) (Homo sapiens, UniProt P29322); settings: EPHA8; 1000 nM
kinases (468) [13] = target: kinases (468) (Homo sapiens, UniProt P29597); settings: compound concentration 1000 nM
kinases (468) [14] = target: kinases (468) (Homo sapiens, UniProt P32298); settings: GRK4; 1000 nM
kinases (468) [15] = target: kinases (468) (Homo sapiens, UniProt P36507); settings: MEK2 (MAP2K2); 1000 nM
kinases (468) [16] = target: kinases (468) (Homo sapiens, UniProt P42685); settings: FRK; 1000 nM
kinases (468) [17] = target: kinases (468) (Homo sapiens, UniProt P49137); settings: MAPKAPK2; 1000 nM
kinases (468) [18] = target: kinases (468) (Homo sapiens, UniProt P51812); settings: compound concentration 1000 nM
kinases (468) [19] = target: kinases (468) (Homo sapiens, UniProt P54646); settings: AMPK-alpha2 (PRKAA2); 1000 nM
kinases (468) [20] = target: kinases (468) (Homo sapiens, UniProt Q00537); settings: PCTK2 (CDK17); 1000 nM
kinases (468) [21] = target: kinases (468) (Homo sapiens, UniProt Q04759); settings: PRKCQ; 1000 nM
kinases (468) [22] = target: kinases (468) (Homo sapiens, UniProt Q13237); settings: PRKG2; 1000 nM
kinases (468) [23] = target: kinases (468) (Homo sapiens, UniProt Q14164); settings: IKK-epsilon (IKBKE); 1000 nM
kinases (468) [24] = target: kinases (468) (Homo sapiens, UniProt Q16659); settings: ERK3 (MAPK6); 1000 nM
kinases (468) [25] = target: kinases (468) (Homo sapiens, UniProt Q6P3R8); settings: NEK5; 1000 nM
kinases (468) [26] = target: kinases (468) (Homo sapiens, UniProt Q6PHR2); settings: kinase ULK3 (Entrez ULK3); compound concentration 1000 nM
kinases (468) [27] = target: kinases (468) (Homo sapiens, UniProt Q9HAZ1); settings: CLK4; 1000 nM
kinases (468) [28] = target: kinases (468) (Homo sapiens, UniProt Q9HCP0); settings: CSNK1G1; 1000 nM
kinases (468) [29] = target: kinases (468) (Homo sapiens, UniProt Q9NRP7); settings: kinase STK36 (Entrez STK36); compound concentration 1000 nM
kinases (468) [30] = target: kinases (468) (Homo sapiens, UniProt Q9NSY1); settings: BIKE (BMP2K); 1000 nM
kinases (468) [31] = target: kinases (468) (Homo sapiens, UniProt Q9UEE5); settings: DRAK1 (STK17A); 1000 nM
kinases (468) [32] = target: kinases (468) (Homo sapiens, UniProt Q9UM73, C1156Y); settings: ALK(C1156Y); 1000 nM
kinases (468) [33] = target: kinases (468) (Homo sapiens, UniProt Q9UQM7); settings: CAMK2A; 1000 nM
kinases (468) [34] = target: kinases (468) (Mycobacterium tuberculosis, UniProt P9WI81); settings: PKNB(M.tuberculosis) (pknB); 1000 nM

kinases (468) (Homo sapiens, UniProt P51812), sequence (P51812 whole entry): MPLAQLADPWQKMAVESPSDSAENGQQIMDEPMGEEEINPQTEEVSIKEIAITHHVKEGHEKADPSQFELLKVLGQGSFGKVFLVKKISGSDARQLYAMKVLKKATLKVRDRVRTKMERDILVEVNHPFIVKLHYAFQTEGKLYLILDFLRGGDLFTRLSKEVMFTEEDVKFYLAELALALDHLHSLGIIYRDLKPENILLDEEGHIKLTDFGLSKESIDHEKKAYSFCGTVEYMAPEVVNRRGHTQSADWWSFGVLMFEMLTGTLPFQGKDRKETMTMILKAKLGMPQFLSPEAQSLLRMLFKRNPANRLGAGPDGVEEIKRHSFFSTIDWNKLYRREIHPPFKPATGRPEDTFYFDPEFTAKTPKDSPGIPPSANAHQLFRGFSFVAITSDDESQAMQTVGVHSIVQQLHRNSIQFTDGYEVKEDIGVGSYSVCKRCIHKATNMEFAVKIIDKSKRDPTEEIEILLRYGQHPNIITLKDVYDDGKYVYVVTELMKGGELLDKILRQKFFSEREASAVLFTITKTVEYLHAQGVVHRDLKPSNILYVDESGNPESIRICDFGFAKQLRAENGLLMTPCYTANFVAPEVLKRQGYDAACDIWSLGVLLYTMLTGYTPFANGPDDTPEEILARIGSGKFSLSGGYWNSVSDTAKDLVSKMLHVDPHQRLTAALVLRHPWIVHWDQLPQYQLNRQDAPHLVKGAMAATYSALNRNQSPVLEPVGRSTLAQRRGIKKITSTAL
kinases (468) (Homo sapiens, UniProt P29597), sequence (P29597 whole entry): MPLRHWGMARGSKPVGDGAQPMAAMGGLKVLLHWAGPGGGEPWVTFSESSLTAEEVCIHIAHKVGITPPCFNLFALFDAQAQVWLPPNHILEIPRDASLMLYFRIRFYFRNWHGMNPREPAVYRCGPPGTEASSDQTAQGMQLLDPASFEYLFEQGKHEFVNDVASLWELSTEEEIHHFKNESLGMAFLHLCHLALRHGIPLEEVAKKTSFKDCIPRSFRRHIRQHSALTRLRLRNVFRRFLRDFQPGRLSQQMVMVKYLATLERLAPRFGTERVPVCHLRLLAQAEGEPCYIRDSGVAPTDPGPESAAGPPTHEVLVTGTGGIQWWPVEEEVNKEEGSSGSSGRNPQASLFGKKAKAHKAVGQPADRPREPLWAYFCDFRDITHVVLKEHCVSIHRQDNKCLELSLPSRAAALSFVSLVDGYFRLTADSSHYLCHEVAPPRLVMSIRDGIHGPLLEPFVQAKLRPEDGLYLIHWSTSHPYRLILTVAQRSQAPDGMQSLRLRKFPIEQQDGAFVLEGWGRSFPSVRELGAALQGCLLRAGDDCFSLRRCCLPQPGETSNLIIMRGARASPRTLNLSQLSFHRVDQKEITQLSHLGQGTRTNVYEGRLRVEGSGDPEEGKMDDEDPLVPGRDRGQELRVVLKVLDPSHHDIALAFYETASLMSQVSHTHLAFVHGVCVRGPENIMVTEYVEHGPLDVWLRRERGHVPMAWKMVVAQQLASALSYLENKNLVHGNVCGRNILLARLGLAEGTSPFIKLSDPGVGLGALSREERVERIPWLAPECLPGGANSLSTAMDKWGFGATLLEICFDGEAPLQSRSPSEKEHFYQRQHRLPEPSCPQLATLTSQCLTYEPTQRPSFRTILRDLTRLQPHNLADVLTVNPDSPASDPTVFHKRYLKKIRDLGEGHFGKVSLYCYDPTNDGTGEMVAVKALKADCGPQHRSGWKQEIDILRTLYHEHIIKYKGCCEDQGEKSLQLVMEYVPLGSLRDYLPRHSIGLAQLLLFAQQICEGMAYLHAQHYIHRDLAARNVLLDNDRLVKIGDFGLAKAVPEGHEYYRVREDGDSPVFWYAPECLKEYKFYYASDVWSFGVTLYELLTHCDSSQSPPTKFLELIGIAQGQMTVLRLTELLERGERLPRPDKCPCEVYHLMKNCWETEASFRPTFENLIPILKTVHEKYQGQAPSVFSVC
kinases (468) (Homo sapiens, UniProt P21709), sequence (P21709 26-976): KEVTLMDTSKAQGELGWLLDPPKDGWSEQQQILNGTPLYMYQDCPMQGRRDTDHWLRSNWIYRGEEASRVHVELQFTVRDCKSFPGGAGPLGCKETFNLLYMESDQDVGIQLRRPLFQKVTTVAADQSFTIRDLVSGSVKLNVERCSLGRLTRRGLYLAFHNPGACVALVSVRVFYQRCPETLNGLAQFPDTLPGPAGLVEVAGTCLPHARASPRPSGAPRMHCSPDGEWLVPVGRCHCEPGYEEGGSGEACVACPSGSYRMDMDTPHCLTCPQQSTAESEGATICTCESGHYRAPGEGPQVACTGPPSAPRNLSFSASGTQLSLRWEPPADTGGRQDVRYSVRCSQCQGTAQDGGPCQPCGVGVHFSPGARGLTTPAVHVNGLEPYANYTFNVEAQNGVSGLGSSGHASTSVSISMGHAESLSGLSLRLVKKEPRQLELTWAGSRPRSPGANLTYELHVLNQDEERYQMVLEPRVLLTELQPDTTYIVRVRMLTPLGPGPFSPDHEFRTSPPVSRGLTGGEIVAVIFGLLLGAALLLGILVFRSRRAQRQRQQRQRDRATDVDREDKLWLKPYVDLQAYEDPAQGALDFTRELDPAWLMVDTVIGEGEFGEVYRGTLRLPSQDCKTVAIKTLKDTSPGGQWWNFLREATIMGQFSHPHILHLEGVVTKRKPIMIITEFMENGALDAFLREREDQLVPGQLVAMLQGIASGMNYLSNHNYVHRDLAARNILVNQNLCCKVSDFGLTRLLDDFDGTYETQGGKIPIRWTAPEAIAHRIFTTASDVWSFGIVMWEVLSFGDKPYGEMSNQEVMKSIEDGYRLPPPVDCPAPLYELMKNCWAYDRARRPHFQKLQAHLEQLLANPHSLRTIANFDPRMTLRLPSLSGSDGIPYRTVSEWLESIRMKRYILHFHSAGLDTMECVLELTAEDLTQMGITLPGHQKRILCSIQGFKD
kinases (468) (Homo sapiens, UniProt Q6P3R8), sequence (Q6P3R8 whole entry): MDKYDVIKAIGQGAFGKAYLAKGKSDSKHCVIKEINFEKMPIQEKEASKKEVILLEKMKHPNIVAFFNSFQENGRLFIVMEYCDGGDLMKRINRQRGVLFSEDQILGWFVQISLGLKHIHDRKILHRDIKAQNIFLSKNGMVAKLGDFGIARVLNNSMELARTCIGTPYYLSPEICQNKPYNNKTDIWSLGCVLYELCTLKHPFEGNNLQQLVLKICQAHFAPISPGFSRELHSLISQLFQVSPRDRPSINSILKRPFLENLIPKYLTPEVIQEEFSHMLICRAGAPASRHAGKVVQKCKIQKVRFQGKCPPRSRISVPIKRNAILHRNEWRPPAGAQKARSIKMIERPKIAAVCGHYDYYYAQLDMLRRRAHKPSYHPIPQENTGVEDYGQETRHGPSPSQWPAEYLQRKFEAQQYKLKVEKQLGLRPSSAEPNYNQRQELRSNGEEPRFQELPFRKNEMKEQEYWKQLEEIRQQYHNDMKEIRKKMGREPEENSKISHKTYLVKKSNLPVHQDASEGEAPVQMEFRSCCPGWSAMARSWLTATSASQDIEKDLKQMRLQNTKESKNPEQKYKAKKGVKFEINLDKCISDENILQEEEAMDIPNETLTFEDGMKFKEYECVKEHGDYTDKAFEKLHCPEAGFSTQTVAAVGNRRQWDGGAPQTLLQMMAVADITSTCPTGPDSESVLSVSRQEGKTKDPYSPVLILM
kinases (468) (Homo sapiens, UniProt Q04759), sequence (Q04759 whole entry): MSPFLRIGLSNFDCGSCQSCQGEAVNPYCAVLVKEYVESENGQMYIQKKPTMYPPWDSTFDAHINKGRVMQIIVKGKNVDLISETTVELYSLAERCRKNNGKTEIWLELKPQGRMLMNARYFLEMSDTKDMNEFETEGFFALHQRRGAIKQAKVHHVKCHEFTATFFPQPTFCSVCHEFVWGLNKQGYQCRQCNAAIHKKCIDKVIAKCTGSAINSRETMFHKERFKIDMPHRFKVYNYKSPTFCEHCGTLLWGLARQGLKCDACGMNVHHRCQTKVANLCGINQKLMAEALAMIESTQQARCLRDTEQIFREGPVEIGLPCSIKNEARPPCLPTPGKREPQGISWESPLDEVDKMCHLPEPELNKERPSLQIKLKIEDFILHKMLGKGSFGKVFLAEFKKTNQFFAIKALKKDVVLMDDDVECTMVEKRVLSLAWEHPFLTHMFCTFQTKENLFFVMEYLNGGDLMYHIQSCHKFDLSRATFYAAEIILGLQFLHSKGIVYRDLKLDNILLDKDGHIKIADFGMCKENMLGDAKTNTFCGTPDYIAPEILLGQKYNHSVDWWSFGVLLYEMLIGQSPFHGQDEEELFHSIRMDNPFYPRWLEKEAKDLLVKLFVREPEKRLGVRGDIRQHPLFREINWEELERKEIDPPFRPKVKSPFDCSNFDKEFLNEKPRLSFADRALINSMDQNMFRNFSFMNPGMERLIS
kinases (468) (Homo sapiens, UniProt Q16659), sequence (Q16659 whole entry): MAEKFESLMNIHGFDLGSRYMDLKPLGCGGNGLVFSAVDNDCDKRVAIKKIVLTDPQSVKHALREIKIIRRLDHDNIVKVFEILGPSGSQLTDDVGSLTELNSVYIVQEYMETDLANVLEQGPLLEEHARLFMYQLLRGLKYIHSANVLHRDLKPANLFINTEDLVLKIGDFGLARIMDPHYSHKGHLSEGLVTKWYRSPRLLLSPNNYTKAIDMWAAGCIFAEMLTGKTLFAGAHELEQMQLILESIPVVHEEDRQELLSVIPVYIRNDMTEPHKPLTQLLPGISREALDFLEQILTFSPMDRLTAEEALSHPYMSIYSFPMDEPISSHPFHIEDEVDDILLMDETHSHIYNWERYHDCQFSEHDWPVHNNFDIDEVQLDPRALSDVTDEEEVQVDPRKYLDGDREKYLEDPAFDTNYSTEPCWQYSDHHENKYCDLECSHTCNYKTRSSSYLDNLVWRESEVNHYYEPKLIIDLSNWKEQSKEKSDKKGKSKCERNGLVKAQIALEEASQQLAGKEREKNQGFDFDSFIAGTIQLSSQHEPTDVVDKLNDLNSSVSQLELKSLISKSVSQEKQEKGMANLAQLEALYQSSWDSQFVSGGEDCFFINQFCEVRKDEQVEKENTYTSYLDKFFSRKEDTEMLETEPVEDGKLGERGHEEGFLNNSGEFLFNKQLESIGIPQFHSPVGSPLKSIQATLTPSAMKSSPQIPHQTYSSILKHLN

## C[C@H]1C[C@@H](O)CN(c2ncc(Cl)c(Nc3ccc4c(c3)c3c(c(=O)n4C)OCC(F)(F)[C@H](C4CC4)N3)n2)C1 [CCT373566_9A]
Kinases (468) [1]
  Percent Control: 100%
Kinases (468) [2]
  Percent Control: 92%
Kinases (468) [3]
  Percent Control: 100%
Kinases (468) [4]
  Percent Control: 94%
Kinases (468) [5]
  Percent Control: 94%
Kinases (468) [6]
  Percent Control: 94%
Kinases (468) [7]
  Percent Control: 100%
Kinases (468) [8]
  Percent Control: 100%
Kinases (468) [9]
  Percent Control: 95%
Kinases (468) [10]
  Percent Control: 100%
Kinases (468) [11]
  Percent Control: 100%
Kinases (468) [12]
  Percent Control: 100%
Kinases (468) [13]; kinase TYK2(JH1domain-catalytic) (Entrez TYK2)
  Percent Control: 97%
Kinases (468) [13]; kinase TYK2(JH2domain-pseudokinase) (Entrez TYK2)
  Percent Control: 89%
Kinases (468) [14]
  Percent Control: 91%
Kinases (468) [15]
  Percent Control: 79%
Kinases (468) [16]
  Percent Control: 100%
Kinases (468) [17]
  Percent Control: 97%
Kinases (468) [18]; kinase RSK2(Kin.Dom.1-N-terminal) (Entrez RPS6KA3)
  Percent Control: 100%
Kinases (468) [18]; kinase RSK2(Kin.Dom.2-C-terminal) (Entrez RPS6KA3)
  Percent Control: 100%
Kinases (468) [19]
  Percent Control: 100%
Kinases (468) [20]
  Percent Control: 95%
Kinases (468) [21]
  Percent Control: 100%
Kinases (468) [22]
  Percent Control: 100%
Kinases (468) [23]
  Percent Control: 100%
Kinases (468) [24]
  Percent Control: 100%
Kinases (468) [25]
  Percent Control: 100%
Kinases (468) [26]
  Percent Control: 93%
Kinases (468) [27]
  Percent Control: 91%
Kinases (468) [28]
  Percent Control: 97%
Kinases (468) [29]
  Percent Control: 91%
Kinases (468) [30]
  Percent Control: 100%
Kinases (468) [31]
  Percent Control: 99%
Kinases (468) [32]
  Percent Control: 95%
Kinases (468) [33]
  Percent Control: 79%
Kinases (468) [34]
  Percent Control: 100%
